Results on six molecules are retold here after patent US11092596B2, “Material and method to screen proteasome stimulators” (Purdue Research Foundation, priority 2017, dated 2021).

By EC50 is commonly meant the concentration that produces a half-maximal response.

Counter-ions that a name gives are not always drawn.

For data set [1], the system named is T1, Suc-LLVY-AMC.
T1 sequence: LLVY

In data set [2] the test system is T2, chymotrypsin-like FRET reporter (CT-L FRET), Lys(Y1)-Met-Ser-Gly-Phe-Ala-Ala-Thr-Ala-Glu(Y2)-Gly.
T2 sequence: KMSGFAATAEG

Data set [3] concerns the target T3, chymotrypsin-like activity of the 20S CP (Homo sapiens, UniProt P28074).
T3 construct: 5 μL purified 20S proteasome (90 nM in Tris-HCl) was added to the control and test wells
The data set is described as follows: Kinetic assay, CT-L FRET reporter hydrolysis by purified 20S CP. Conditions: for increase in the rate of hydrolysis (CT-L FRET reporter): 9 nM 20S CP, vs basal. The class given is biochemical. The method, then: (§1) Plate preparation for the kinetic assay was performed similarly for all assays. All 96-well plates contained the following in triplicate: reporter background, containing reporter only, and control wells, containing reporter and purified 20S CP. It was determined that each well will contain a total volume of 50 μL. To each well was added 40 μL of the coumarin or FRET reporters (in Tris-HCl, 50 mM, pH 7.7). To the reporter background wells was added 7.5 μL Tris-HCl and 2.5 μL of the solvent in which the compound of interest was dissolved or diluted. Similarly, to the control wells was added 2.5 μL Tris-HCl and 2.5 μL of the solvent in which the compound of interest was dissolved or diluted. To the test wells was added 2.5 μL Tris-HCl and 2.5 μL of the compound of interest at a predetermined concentration. Immediately prior to running the assay on the Synergy 4 Plate Reader, 5 μL purified 20S proteasome (90 nM in Tris-HCl) was added to the control and test wells.
The Synergy 4 Plate Reader was set to heat the plate at 37° C. and read fluorescence every 2 min over a 40 min period. The excitation and emission wavelengths were set according to the reporter. For the FRET reporter, the excitation and emission wavelengths were set to 335 nm and 493 nm, respectively, corresponding to the excitation and emission wavelengths of the Edans fluorophore. For the coumarin reporter, the excitation and emission wavelengths were set to 380 nm and 460 nm, respectively.
(§2) AM-404 was used as a positive control compound to test the dose-response screening capabilities of the CT-L FRET reporter. The following concentrations of AM-404 were tested in triplicate: 50, 25, and 12.5 μM. To each well was added 40 μL 20 μM CT-L FRET (in Tris-HCl, 50 mM, pH 7.7). To the reporter background wells was added 5 μL Tris-HCl and 5 μL 1:1 Tris-HCl:DMSO. Similarly, to the control wells was added 5 μL 1:1 Tris-HCl:DMSO. To the 50 μM AM-404 test wells was added 2.5 μL Tris-HCl and 2.5 μL 1000 μM AM-404 in DMSO. To the 25 μM AM-404 test wells was added 2.5 μL Tris-HCl and 2.5 μL 500 μM AM-404 in DMSO. To the 12.5 μM AM-404 test wells was added 2.5 μL Tris-HCl and 2.5 μL 250 μM AM-404 in DMSO. Immediately prior to running the assay on the Synergy 4 Plate Reader, 5 μL purified 20S proteasome (90 nM in Tris-HCl) was added to the control and test wells. The assay was performed using the Synergy 4 plate reader as described for the general screening kinetic assay procedure.
as §2, with “Fenofibrate was” for “AM-404 was”, “a negative” for “a positive”, “of fenofibrate” for “of AM-404”, “μM fenofibrate” for “μM AM-404”, “procedure. […]” for “procedure.”

The target of data set [4] is 20S CP (Homo sapiens, UniProt P28074). To be noted: in cellulo, Suc-LLVY-AMC reporter, previously reported; read-out: EC50 as 20S CP stimulator; cited from earlier work.
Data set [5] deals with 26S proteasome. Conditions: at concentrations as low as 5 μM; cited from earlier work.
Data set [6] concerns the target T3, chymotrypsin-like activity of the 20S CP. Briefly: Kinetic assay, Suc-LLVY-AMC reporter hydrolysis by purified 20S CP. The class given is biochemical. The method, then:
as §1
(§3) The Synergy 4 Plate Reader was set to heat the plate at 37° C. and read fluorescence every 2 min over a 40 min period. The excitation and emission wavelengths were set according to the reporter. For the FRET reporter, the excitation and emission wavelengths were set to 335 nm and 493 nm, respectively, corresponding to the excitation and emission wavelengths of the Edans fluorophore. […]
Sodium dodecyl sulfate (SDS) was used to test the effect stimulating the 20S proteasome has on the hydrolysis of the FRET reporters. The appropriate concentration of SDS to use in the kinetic assay was determined using the small chymotrypsin-like activity reporter, Suc-LLVY-AMC (SEQ ID NO: 4). […] In triplicate, the following final concentrations of SDS were analyzed for the effect each has on the activity of the 20S proteasome: 4000 μM, 2000 μM, 1000 μM, 500 μM, 250 μM, 125 μM, and 0 μM, the basal activity of the 20S proteasome. […] Immediately prior to reading the plate with the Synergy 4 plate reader, 5 μL purified 20S proteasome (90 nM in Tris-HCl) was added to the wells at a final concentration of 9 nM per well.
The Synergy 4 Plate Reader was set to heat the plate at 37° C. and read fluorescence every 2 min over a 1 hr period. […] The resulting data in relative fluorescence units (RFU) was analyzed using GraphPad Prism and was plotted against time in minutes. […] Based on the resulting curve and the hyperbolic curve obtained using 1000 μM SDS (FIG. 11b), it was determined that 500 μM SDS was the appropriate concentration to use to test the effect stimulating the 20S proteasome has on the hydrolysis of the FRET reporters.
Stimulation of the 20S proteasome with SDS was determined using both the coumarin and FRET reporters for the chymotrypsin-like and trypsin-like activities of the 20S CP. […]

Data set [7] concerns the target T4, trypsin-like activity of the 20S CP (Homo sapiens, UniProt Q99436). Briefly: Kinetic assay, Bz-VGR-AMC reporter hydrolysis by purified 20S CP. It is filed as biochemical. To be noted: 500 μM SDS. The method, then: as §1, with “To the test wells was added 2.5 μL Tris-HCl and 2.5 μL of the compound of interest at a predetermined concentration.” left out
The Synergy 4 Plate Reader was set to heat the plate at 37° C. and read fluorescence every 2 min over a 40 min period. […]
Stimulation of the 20S proteasome with SDS was determined using both the coumarin and FRET reporters for the chymotrypsin-like and trypsin-like activities of the 20S CP. […] Immediately prior to running the assay on the Synergy 4 Plate Reader, 5 μL purified 20S proteasome (90 nM in Tris-HCl) was added to the control and test wells. […]

The target of data set [8] is T4, trypsin-like activity of the 20S CP. Briefly: Kinetic assay, T-L FRET reporter hydrolysis by purified 20S CP. It is filed as biochemical. To be noted: 500 μM SDS. The method, then:
as §1, §3
Stimulation of the 20S proteasome with SDS was determined using both the coumarin and FRET reporters for the chymotrypsin-like and trypsin-like activities of the 20S CP. […] Immediately prior to running the assay on the Synergy 4 Plate Reader, 5 μL purified 20S proteasome (90 nM in Tris-HCl) was added to the control and test wells. The assay was performed using the Synergy 4 plate reader as described for the general screening kinetic assay procedure. […]
To each well was added 40 μL 20 μM T-L FRET reporter (in Tris-HCl, 50 mM, pH 7.7). […] Immediately prior to running the assay on the Synergy 4 Plate Reader, 5 μL purified 20S proteasome (90 nM in Tris-HCl) was added to the control and test wells.

As for “20S core particle (20S CP) of the proteasome”, the “rate of hydrolysis (average basal level, no stimulator)” value in data set [1] is on record as 60 ΔRFU/min. Also, in data set [2], the Mean Signal (Rate), Basal (background) activity of the 20S CP is 5.3 and the “rate of hydrolysis (average basal level, no stimulator)” value was 2.9 ΔRFU/min.
As to `CCCCC/C=C\C/C=C\C/C=C\C/C=C\CCCC(=O)Nc1ccc(O)cc1` [AM-404], the results for the “increase in the rate of hydrolysis (CT-L FRET reporter)” value in data set [3] (12.5 μM compound (lowest concentration tested)), in data set [3] (25.0 μM compound) and in data set [3] (50.0 μM compound) were 4 fold, 5 fold and 7 fold, respectively. Besides, the “Mean Signal (Rate)” value in data set [3] (CT-L FRET reporter, 20S CP, basal 5.300) is 40.46. Besides, in data set [3] (CT-L FRET reporter, dose response curve), the “dose dependence of 20S CP stimulation” value is reported as “dose-dependent”. Besides, in data set [4], the EC50 is ~32 µM.
Take `O=C(O)c1cc(O)c2c(c1)[C@@H]([C@H]1c3cc(C(=O)O)cc(O)c3C(=O)c3c(O[C@@H]4O[C@H](CO)[C@@H](O)[C@H](O)[C@H]4O)cccc31)c1cccc(O[C@@H]3O[C@H](CO)[C@@H](O)[C@H](O)[C@H]3O)c1C2=O` [Compound 4, Sennoside B]: in data set [3] (25 μM, newly purchased compound, CT-L FRET reporter), the “validation of primary hits in triplicate” value is listed as “did not perform as it had in the initial screen”.
`CN(C)C(=O)C(CCN1CCC(O)(c2ccc(Cl)cc2)CC1)(c1ccccc1)c1ccccc1` [Loperamide HCl]: in data set [5], the “stimulation of the 26S proteasome” value is “stimulate the 26S proteasome”.
For the molecule `CCCCCCCCCCCCOS(=O)(=O)[O-].[Na+]` [SDS, sodium dodecyl sulfate], the “increase in the rate, CT-L FRET reporter” value in data set [3] (500 μM SDS vs basal) amounted to 8.3 fold. Also, in data set [3] (500 μM SDS, basal 2.9 ΔRFU/min), the “average rate of hydrolysis, CT-L FRET reporter” value is listed as 24 ΔRFU/min. For the same molecule, in data set [6] (500 μM SDS vs basal), the “increase in the rate, Suc-LLVY-AMC reporter” value came to 2.4 fold. Moreover, the “average rate of hydrolysis, Suc-LLVY-AMC reporter” value in data set [6] (500 μM SDS, basal 60 ΔRFU/min) is recorded as 145 ΔRFU/min. Moreover, the “increase in the rate of hydrolysis of Bz-VGR-AMC compared to basal activity” value in data set [7] was determined as 2 fold. Further, the “increase in the rate of hydrolysis of T-L FRET reporter compared to basal activity” value in data set [8] came out at 5 fold.
On to `CC(C)C[C@H](NC(=O)[C@H](Cc1ccccc1)NC(=O)c1cnccn1)B(O)O` [bortezomib], for which the “decrease in the rate of hydrolysis of the CT-L FRET reporter” value in data set [3] (2 μM bortezomib) stood at 40%.
